Test results reported in patent publication US12616649B2, “Composition containing plant extracts” (LG HOUSEHOLD & HEALTH CARE LTD., priority 2020, dated 2026).

How the values were obtained:
[1] = Antioxidant effect, free radical scavenging (DPPH); type: physicochemical; settings: control group
Protocol: To confirm antioxidant activity, free radical scavenging activity was measured using DPPH. DPPH was purchased from Sigma Co., Ltd. (USA). First, a standard DPPH ethanol solution with a concentration of […] (0.06 mg/ml) was prepared. Then, ethanol was added to each extract and ascorbic acid as a reference material, which is known as an antioxidant, to prepare samples at a concentration of 0.1%, and serial dilution was performed. Then, the sample and the standard DPPH solution were added in the same ratio and stirred, followed by reaction at 37° C. for 30 minutes. Then, absorbance was measured at 517 nm. At this time, addition of ethanol instead of the sample was used as a control. Free radical scavenging ability was measured by calculating IC50, which is half maximal inhibitory concentration, and the results are shown in the following table. IC50 is a general method of expressing free radical scavenging ability as the concentration of ascorbic acid and extract required to remove 50% of free radicals of a non-addition control group.

[2] = tested on: B-16 mouse melanoma cells; test: Effect of reducing total amount of melanin (whitening); type: cell-based; settings: control group
Protocol: After a sample was added to the culture medium of B-16 mouse melanoma cells, a whitening effect was confirmed by measuring the total amount of melanin at the cellular level (Lotan R., Lotan D. Cancer Res. 40:3345-3350, 1980). Before the experiment, toxicity evaluation was performed on mouse melanoma cells to select a concentration without toxicity, and then whitening evaluation was performed at the concentration.
As a control, arbutin was added to the culture medium at a concentration of 200 ppm. B-16 melanoma cells treated with the sample or arbutin were cultured for 3 days.
Thereafter, the cells were removed from a culture vessel and centrifuged, 1 ml of sodium hydroxide solution (1N concentration) was added to the centrifuged cell pellet, heating was performed at 80° C. for 10 minutes to dissolve melanin, and using a spectrophotometer, absorbance at 400 nm was measured to measure the amount of melanin produced.
The amount of melanin was determined according to absorbance per unit cell number (1×10^6 cells). In addition, based on a non-addition control group, the relative total amount of melanin in the experimental group treated with each sample was calculated as inhibition rate (%), and the results are summarized in the table below.

Aspergillus niger = test: Antibacterial effect, MIC, fungi (serial dilution); type: cell-based
Protocol: MICs were measured for fermented cultures of Staphylococcus aureus and Aspergillus niger.
The serial dilution method was used for both bacteria, and the MIC of fermentation culture was confirmed by visually comparing the turbidity between wells after the incubation was completed.
The minimum inhibitory concentration of each extract was expressed as % (w/v), and MIC (%) in each table means % (w/v) unless otherwise stated.

P. aeruginosa = test: MIC of the hexanediol control, bacteria as named in the tables; type: cell-based; settings: control group
human dermal fibroblasts = test: Hyaluronic acid synthesis enhancement (Hyaluronan ELISA); type: cell-based; settings: 10 ppb
Protocol: Human-derived fibroblasts (human dermal fibroblasts) cultured in a DMEM culture medium containing 10% fetal bovine serum at a cell density of 1×10^5 cells/mL, and 500 μl of the cell culture medium was added to each well of a 24-well plate. After incubation for 18 hours, the samples were diluted with a DMEM culture medium without fetal bovine serum, and each sample was added at the following concentrations. […] After incubation for 24 hours, the cell culture medium was recovered, and the concentration of hyaluronic acid was measured using a Hyaluronan ELISA kit (R&D Systems).

[3] = tested on: human-derived fibroblasts; test: Promotion of type I collagen synthesis (PICP EIA kit); type: cell-based; settings: 10 ppb
Protocol: Each sample was added to the culture medium of human-derived fibroblasts to confirm the effect of promoting synthesis of type I collagen at the cellular level. Measurement of synthesized collagen was quantified using a Procollagen Type I C-Peptide Enzyme Immuno Assay KIT (PICP ETA kit). To measure the amount of synthesized collagen, each sample was added to a fibroblast culture medium (DMEM culture medium). After cell culture for 48 hours, the culture medium was taken, and the degree of synthesis of type I collagen at each concentration was measured at 450 nm using a spectrophotometer using the PICP ETA kit.
For comparison of the effects, a collagen synthesis level was measured in the same manner for the culture medium of untreated fibroblasts (negative control) and a sample (positive control) to which TGFb was added to a final concentration of 10 ppb. A collagen production increase rate was calculated as the ratio of relative collagen production to the negative control group, and the results are shown in the table below.

RAW264.7 cells = test: NO generation inhibitory effect (GRIESS method, LPS stimulus); type: cell-based, mouse
Protocol: To check the anti-inflammatory effect and skin trouble alleviation effect of each sample, an experiment was conducted to evaluate inhibition of nitric oxide (NO) formation by the GRIESS method using the RAW264.7 cell line (ATCC number: CRL-2278).
Specifically, RAW264.7 cells, which are macrophages of mice, were subcultured several times, and the cells were seeded at a cell density of 3×10^5 cells per well in a 24-well plate, followed by cell culture for 24 hours. At this time, as a positive control, the cells were treated with L-NG-monomethylarginine (L-NMMA), a NO-production inhibitor, to a final concentration of 5 ppm and cultured for 30 minutes. Then, the cells were treated with lipopolysaccharide (LPS) as a stimulus at a concentration of 1 μg/ml and cultured for 24 hours. 100 μl of the supernatant was transferred to a 96-well plate, 100 μl of a GRIESS solution was added thereto, and then reaction was performed at room temperature for 10 minutes. Then, absorbance at 540 nm was measured, and the NO inhibitory effect of each sample was determined based on the absorbance, and the results are shown in the table below.

Compound: O=C1O[C@H]([C@@H](O)CO)C(O)=C1O [Vitamin C, ascorbic acid]
- Anti-oxidation IC50 [1]: 7.5 ppm
- Anti-oxidation IC50 ([1]; DPPH): 7.5 ppm

Compound: OC[C@H]1O[C@@H](Oc2ccc(O)cc2)[C@H](O)[C@@H](O)[C@@H]1O [Arbutin, arbutin]
- Whitening Melanin content (%) ([2]; 200 ppm): 35%

Compound: Hexanediol
- Anti-bacteria MIC (%) Fungi (Aspergillus niger; % (w/v), A. niger, 30° C., 48 hours): Fungi: A. niger 1%
- Anti-bacteria MIC (%) Fungi (Aspergillus niger; Fungi): Fungi: A. niger 1%
- Anti-bacteria MIC (%) Fungi (Aspergillus niger; Fungi (A. niger)): Fungi: A. niger 1%
- Anti-bacteria MIC (%) Fungi (Aspergillus niger; Fungi (A.niger)): Fungi: A.niger 1%
- Anti-bacteria MIC (%) Fungi (Aspergillus niger; Fungi (control line: A. niger)): Fungi: A. niger 1%
- Anti-bacteria MIC (%) Fungi: A. niger (Aspergillus niger; control group, A. niger): Fungi: A. niger 1%
- Anti-bacteria MIC (%) Bacteria: P. aeruginosa (P. aeruginosa): Bacteria: P. aeruginosa 2%
- Anti-bacteria MIC (%) Bacteria: P. aeruginosa (P. aeruginosa; P. aeruginosa): Bacteria: P. aeruginosa 2%
- Anti-bacteria MIC (%) Bacteria: P. aeruginosa (P. aeruginosa; Bacteria: P. aeruginosa): Bacteria: P. aeruginosa 2%
- Anti-bacteria MIC Bacteria: P. aeruginosa (P. aeruginosa; Bacteria: P. aeruginosa): Bacteria: P. aeruginosa 2%

Compound: EGF: epidermal growth factor, known to promote hyaluronic acid production
- Moisturizing HA synthesis (%) (human dermal fibroblasts; control group): 320%
- Moisturizing HA synthesis (%) (human dermal fibroblasts; positive control): 320%

Compound: TGFb: positive control for collagen synthesis, 10 ppb
- Anti-wrinkle Collagen synthesis (% of control) ([3]; control group): 25%
- Anti-wrinkle Collagen synthesis (% of control) ([3]; positive control): 25%

Compound: OC[C@H]1O[C@@H](Oc2ccc(O)cc2)[C@H](O)[C@@H](O)[C@@H]1O [Aibutin]
- Whitening Melanin content (%) ([2]; Arbutin 200 ppm): 35%

Compound: CNC(=N)NCCC[C@H](N)C(=O)O [L-NMMA, L-NG-monomethylarginine]
- Anti-inflammation Inhibition of NO production (%) (RAW264.7 cells; control group, 5 ppm): 28%
- Anti-inflammation Inhibition of NO production (%) (RAW264.7 cells; control group, L-NMMA 5 ppm): L-NMMA (5 ppm) 28%
- Anti-inflammation Inhibition of NO production (%) (RAW264.7 cells; positive control, 5 ppm): 28%
